We go through twelve compounds from ChEMBL document CHEMBL2417375 (Bioorg Med Chem Lett, 2013).

By EC50 is commonly meant the midpoint of the concentration-response curve. The Ki is a measure of affinity in units of concentration, obtained from inhibition or displacement. The Emax is the maximal effect, on the per cent scale that the assay sets.

The target of assay [1] is T1, Mu-type opioid receptor (Mus musculus, UniProt P42866). The assay can be described thus: Agonist activity at mouse mu opioid receptor expressed in CHO cells assessed as stimulation of [35S]-GTPgammaS binding after 1.5 hrs. In kind it is functional, cell-based. (GTPγS is a poorly hydrolysed GTP analogue; its binding reports G protein activation.)
The target of assay [2] is Kappa-type opioid receptor (Mus musculus, UniProt P33534). Nature of the assay: Displacement of [3H]-diprenorphine from mouse kappa opioid receptor expressed in CHO cells after 1.5 hrs. The format is cell-based.
Assay [3] addresses T1, Mu-type opioid receptor. Nature of the assay: Displacement of [3H]-naloxone from mouse mu opioid receptor expressed in CHO cells after 1.5 hrs. The format is cell-based. (In general: Loss of bound radioactivity is the signal in a displacement assay; it reports binding, not function.)
The species entered for assay [4] is Mus musculus. Nature of the assay: Selectivity ratio of Ki for mouse delta opioid receptor to Ki for mouse mu opioid receptor.
The species entered for assay [5] is Mus musculus. The assay can be described thus: Selectivity ratio of Ki for mouse kappa opioid receptor to Ki for mouse mu opioid receptor.
Assay [6] concerns the target Delta-type opioid receptor (Mus musculus, UniProt P32300). Nature of the assay: Displacement of [3H]-naltrindole from mouse delta opioid receptor expressed in CHO cells after 1.5 hrs. The format is cell-based.
Assay [7] has as its target Mu-type opioid receptor (Mus musculus) (UniProt P42866). The assay can be described thus: Agonist activity at mouse mu opioid receptor expressed in CHO cells assessed as stimulation of [35S]-GTPgammaS binding after 1.5 hrs relative to DAMGO. The format is functional, cell-based.

T1 sequence (P42866 whole entry): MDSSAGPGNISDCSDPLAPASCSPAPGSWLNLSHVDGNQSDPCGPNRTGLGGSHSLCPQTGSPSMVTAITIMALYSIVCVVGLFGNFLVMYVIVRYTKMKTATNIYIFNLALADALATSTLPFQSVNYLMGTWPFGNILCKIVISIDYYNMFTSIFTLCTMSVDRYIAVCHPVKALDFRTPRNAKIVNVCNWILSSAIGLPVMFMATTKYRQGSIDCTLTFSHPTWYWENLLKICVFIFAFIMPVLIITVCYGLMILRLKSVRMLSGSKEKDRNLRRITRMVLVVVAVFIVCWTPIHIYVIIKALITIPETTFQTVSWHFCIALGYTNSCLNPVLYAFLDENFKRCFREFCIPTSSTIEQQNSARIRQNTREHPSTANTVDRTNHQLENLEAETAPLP
Chain of Mu-type opioid receptor (Mus musculus) (P42866 whole entry): as above
Chain of Delta-type opioid receptor (P32300 whole entry): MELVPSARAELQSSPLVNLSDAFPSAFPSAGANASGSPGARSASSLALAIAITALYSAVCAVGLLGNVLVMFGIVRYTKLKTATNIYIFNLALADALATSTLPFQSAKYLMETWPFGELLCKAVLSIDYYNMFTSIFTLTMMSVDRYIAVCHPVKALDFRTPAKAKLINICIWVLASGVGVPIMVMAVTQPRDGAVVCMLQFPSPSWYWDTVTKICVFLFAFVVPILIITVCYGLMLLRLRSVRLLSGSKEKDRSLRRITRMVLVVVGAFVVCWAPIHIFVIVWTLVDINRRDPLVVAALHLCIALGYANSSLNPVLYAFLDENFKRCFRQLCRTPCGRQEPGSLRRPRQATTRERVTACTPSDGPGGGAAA
Chain of Kappa-type opioid receptor (P33534 whole entry): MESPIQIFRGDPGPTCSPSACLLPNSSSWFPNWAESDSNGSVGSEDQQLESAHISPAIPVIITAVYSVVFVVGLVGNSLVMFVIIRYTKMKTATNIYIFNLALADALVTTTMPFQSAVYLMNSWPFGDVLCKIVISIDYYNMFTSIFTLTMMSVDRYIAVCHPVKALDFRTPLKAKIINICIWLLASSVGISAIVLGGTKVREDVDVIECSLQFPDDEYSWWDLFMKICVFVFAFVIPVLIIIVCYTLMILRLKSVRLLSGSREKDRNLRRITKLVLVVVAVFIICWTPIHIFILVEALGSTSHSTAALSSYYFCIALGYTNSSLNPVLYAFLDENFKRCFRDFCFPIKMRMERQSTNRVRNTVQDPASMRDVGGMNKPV

In the case of `N#Cc1nc(C(=O)N[C@H]2CC[C@@]3(O)[C@H]4Cc5ccc(O)c6c5[C@@]3(CCN4CC3CC3)[C@H]2O6)cc2ccccc12`, the EC50 on Mu-type opioid receptor [1] was 3.32 nM. Also, the Ki turned out to be 10.1 nM in assay [2], 0.99 nM at Mu-type opioid receptor [3] and 130 nM in assay [6]. The Ratio Ki in the assay listed under Mus musculus [4] was determined as 131; in the assay listed under Mus musculus [5], 10. Further, in assay [7], the Emax was 37.5%.
Consider `O=C(N[C@H]1CC[C@@]2(O)[C@H]3Cc4ccc(O)c5c4[C@@]2(CCN3CC2CC2)[C@H]1O5)c1ncc2ccccc2n1`, for which, on Mu-type opioid receptor [1], the EC50 is 6 nM. In addition, the Ki in assay [2] was found to be 5.1 nM; at Mu-type opioid receptor [3], 1.11 nM; in assay [6] it was 78.8 nM. Moreover, the values for the Ratio Ki in the assay listed under Mus musculus [4] and in the assay filed under Mus musculus [5] were 71 and 4.6, respectively. Besides, the Emax in assay [7] was 21.6%.
As to `O=C(N[C@H]1CC[C@@]2(O)[C@H]3Cc4ccc(O)c5c4[C@@]2(CCN3CC2CC2)[C@H]1O5)c1cc2ccccc2c(Cl)n1`, the Ki is 10.8 nM in assay [2] and 79.8 nM in assay [6].
In the case of `O=C(CNC(=O)c1cc2ccccc2cn1)N[C@H]1CC[C@@]2(O)[C@H]3Cc4ccc(O)c5c4[C@@]2(CCN3CC2CC2)[C@H]1O5`, the EC50 on Mu-type opioid receptor [1] is 14.1 nM. The Ki in assay [2] amounted to 0.61 nM; on Mu-type opioid receptor [3] it was 2.7 nM; in assay [6], 9.2 nM. Also, the Ratio Ki in the assay filed under Mus musculus [4] amounted to 3.4; in the assay filed under Mus musculus [5], 0.2. In addition, the maximum response (Emax) in assay [7] came to 13.9%.
Turning to `Cc1nc(C(=O)N[C@H]2CC[C@@]3(O)[C@H]4Cc5ccc(O)c6c5[C@@]3(CCN4CC3CC3)[C@H]2O6)cc2ccccc12`, the EC50 at Mu-type opioid receptor [1] came to 7.2 nM. The Ki in assay [2] was 29.1 nM; at Mu-type opioid receptor [3], 2.1 nM; in assay [6], 117 nM. Further, the Emax in assay [7] came to 22.2%.
Regarding `CN1Cc2ccccc2C[C@H]1C(=O)N[C@H]1CC[C@@]2(O)[C@H]3Cc4ccc(O)c5c4[C@@]2(CCN3CC2CC2)[C@H]1O5`, the EC50 at Mu-type opioid receptor [1] stood at 19.4 nM. Moreover, the Ki in assay [2] turned out to be 6.76 nM; at Mu-type opioid receptor [3] it was 2.9 nM; in assay [6], 9.3 nM. The Ratio Ki was found to be 3.2 in the assay listed under Mus musculus [4] and 2.3 in the assay filed under Mus musculus [5]. Also, the Emax in assay [7] is 24.8%.
As to `O=C(N[C@H]1CC[C@@]2(O)[C@H]3Cc4ccc(O)c5c4[C@@]2(CCN3CC2CC2)[C@H]1O5)c1cc2ccccc2cn1`, in assay [6], the affinity, expressed as Ki, was 162 nM. In other words, the sub-micromolar range.
On to `O=C(N[C@H]1CC[C@@]2(O)[C@H]3Cc4ccc(O)c5c4[C@@]2(CCN3CC2CC2)[C@H]1O5)c1nc(Cl)c2ccccc2c1O`, for which the EC50 on Mu-type opioid receptor [1] amounted to 1.23 nM. Besides, the Ki turned out to be 18.3 nM in assay [2], 0.73 nM on Mu-type opioid receptor [3] and 17.4 nM in assay [6]. Moreover, the Ratio Ki in the assay filed under Mus musculus [4] stood at 24; in the assay filed under Mus musculus [5], 25. Further, the maximal effect (Emax) in assay [7] is 19.8%.
Turning to `O=C(N[C@H]1CC[C@@]2(O)[C@H]3Cc4ccc(O)c5c4[C@@]2(CCN3CC2CC2)[C@H]1O5)c1ncc2ccccc2c1O`, at Mu-type opioid receptor [1], the EC50 stood at 1.06 nM. The Ki in assay [2] amounted to 4 nM; on Mu-type opioid receptor [3] it was 0.45 nM; in assay [6], 32.8 nM. In addition, in assay [7], the maximal response (Emax) was 20.5%.
For `O=C(CCc1cc2ccccc2cn1)N[C@H]1CC[C@@]2(O)[C@H]3Cc4ccc(O)c5c4[C@@]2(CCN3CC2CC2)[C@H]1O5`, at Mu-type opioid receptor [1], the EC50 was determined as 1.14 nM. The values for the inhibitory constant (Ki) (in assay [2]; at Mu-type opioid receptor [3]; in assay [6]) were 1.61 nM, 0.68 nM and 8.4 nM, respectively. The Ratio Ki is 12 in the assay filed under Mus musculus [4] and 2.4 in the assay filed under Mus musculus [5]. In addition, the Emax in assay [7] turned out to be 27.4%.
Take `COc1c(C(=O)N[C@H]2CC[C@@]3(O)[C@H]4Cc5ccc(O)c6c5[C@@]3(CCN4CC3CC3)[C@H]2O6)nc(Cl)c2ccccc12`: the EC50 on Mu-type opioid receptor [1] came to 1.74 nM. The inhibition constant Ki in assay [2] turned out to be 22.2 nM; in assay [6], 33.9 nM.
`O=C(Cc1cc2ccccc2cn1)N[C@H]1CC[C@@]2(O)[C@H]3Cc4ccc(O)c5c4[C@@]2(CCN3CC2CC2)[C@H]1O5`: the EC50 on Mu-type opioid receptor [1] worked out at 4.6 nM. The Ki in assay [2] is 1.1 nM; at Mu-type opioid receptor [3], 1.2 nM; in assay [6] it was 12.5 nM. Also, the values for the Ratio Ki in the assay listed under Mus musculus [4] and in the assay listed under Mus musculus [5] were 10 and 0.9, respectively. In assay [7], the Emax came to 18.6%.
